Data: US5674876A, “.rho.-heteroatom-substituted phenols and uses thereof” (Research Development Foundation, priority 1995, dated 1997)

Assays:
Assay type in all cases: cell-based
Design in all cases: key to Inhibition (%) of DNA synthesis: TOXIC (viability): TOXIC: the compound at this concentration killed the cells or greatly lowered their viability
[1] = system: MDA MB 435 (Metastic Human Breast Cancer Cell Line); assay: Inhibition of DNA synthesis (3H-TdR uptake) / proliferation, MB-435; conditions: for inhibition at 0.1 µg/mL / inhibition at 1 µg/mL / inhibition at 5 µg/mL / inhibition at 10 µg/mL / inhibition at 20 µg/mL: Homo sapiens, MDA-MB-435; for inhibition at 0.1 µg/mL: MB-435, 0.1 μg/mL; for inhibition at 0.1 µg/mL / inhibition at 1 µg/mL / inhibition at 5 µg/mL / Inhibition (%) of DNA synthesis: TOXIC (viability) / inhibition at 10 µg/mL / inhibition at 20 µg/mL: 48 h; for inhibition at 1 µg/mL: MB-435, 1 μg/mL
Method: (§1) Cells were cultured in the following media: 1) MDA MB 435 cells were cultured in Minimum Essential Media (MEM-HyClone, Logan, Utah) supplemented with 5% heat inactivated fetal bovine serum (HyClone), 2 mM glutamine (Sigma, St. Louis, Mo.), 1 mM sodium pyruvate (Sigma), 1X MEM Non-Essential Amino Acids (Sigma), 2X MEM Vitamins (Sigma), and 100 IU/mL penicillin/100 μg/mL streptomycin (HyClone); 2) MCF-7 McGuire cells were cultured in Minimum Essential Media (MEM-HyClone, Logan, Utah) supplemented with 5% heat inactivated fetal bovine serum (HyClone), 2 mM glutamine (Sigma, St. Louis, Mo.), and 100 IU/mL penicillin/100 μg/mL streptomycin (HyClone); 3) HL-60 cells were cultured in Iscoves Modified Dulbecco's Media (IMDM-HyClone, Logan, Utah) supplemented with 5% heat inactivated fetal bovine serum (HyClone), 2 mM glutamine (Sigma, St. Louis, Mo.), 1 mM sodium pyruvate (Sigma), 1X MEM Non-Essential Amino Acids (Sigma), 2X MEM Vitamins (Sigma), and 100 IU/mL penicillin/100 μg/mL streptomycin (HyClone); 2) MCF-7 McGuire cells were cultured in Minimum Essential Media (MEM-HyClone, Logan, Utah) supplemented with 5% heat inactivated fetal bovine serum (HyClone), 2 mM glutamine (Sigma, St. Louis, Mo.), and 100 IU/mL penicillin/100 μg/mL streptomycin (HyClone); 3) HL-60 cells were cultured in Iscoves Modified Dulbecco's Media (IMDM-HyClone, Logan, Utah) supplemented with 5% heat inactivated fetal bovine serum (HyClone), 2 mM glutamine (Sigma, St. Louis, Mo.), and 100 IU/mL penicillin/100 μg/mL streptomycin (HyClone).
(§2) All compounds were handled as if they were light sensitive. All compounds were initially dissolved in absolute ethanol and subsequently diluted to a final concentration of 0.5% ethanol with the appropriate medium.
(§3) For the bioassay, all cells were used at 2.5×10^5 /mL. Cells were treated with each of the compounds at concentrations of 20, 10, 5, 1, 0.1, and 0.01 μg/mL , and 200 μl of each treatment group were plated in quadruplicate in a 96 well culture plate (Corning, Corning N.Y.). Plates were done in duplicate, one plate to be used for viability testing and the other plate to examine ^3 H-TdR uptake (DNA synthesis).
(§4) Plates were cultured for 48 hours at 37° C., 5% CO2. Eight hours prior to the end of incubation, ^3 H-TdR was added to one of the duplicate plates and incubation continued for 8 hours. The cells were then harvested (trypsinization was required to harvest MDA MB 435 and MCF-7 McGuire). At the end of the incubation, the cells were removed from the wells (of the duplicate plate--no radioisotope added) and viability checked by the Trypan Blue Exclusion method. Percent viability and percent suppression of each treatment group were calculated.
(§5) With respect to the data shown in the Tables below, the data is arranged from greatest percent inhibition of DNA synthesis to lowest. […] "NT" refers to "Not Tested". The cells were cultured for 48 hours, pulsed 8 hours with tritiated thymidine, harvested and counted. MDA MB 435 is the abbreviation for the Metastic Human Breast Cancer Cell Line. MCF-7 McGuire is the abbreviation for the Estrogen Responsive Human Breast Cancer Cell Line and HL-60 is the Human Promyelocytic Leukemia Cell Line.

[2] = system: MCF-7 McGuire (Estrogen Responsive Human Breast Cancer Cell Line); assay: Inhibition of DNA synthesis (3H-TdR uptake) / proliferation, MCF-7; conditions: for inhibition at 0.1 µg/mL / inhibition at 1 µg/mL / inhibition at 5 µg/mL / inhibition at 10 µg/mL / inhibition at 20 µg/mL: Homo sapiens, MCF7; for inhibition at 0.1 µg/mL: MCF-7, 0.1 μg/mL; for inhibition at 1 µg/mL: MCF-7, 1 μg/mL; for inhibition at 5 µg/mL: MCF-7, 5 μg/mL
Method: as §1, §2, §3, §4, §5

[3] = system: HL-60 (Human Promyelocytic Leukemia Cell Line); assay: Inhibition of DNA synthesis (3H-TdR uptake) / proliferation, HL-60; conditions: for inhibition at 0.1 µg/mL / inhibition at 1 µg/mL / inhibition at 5 µg/mL / inhibition at 10 µg/mL / inhibition at 20 µg/mL: Homo sapiens; for inhibition at 0.1 µg/mL: HL-60, 0.1 μg/mL; for inhibition at 1 µg/mL: HL-60, 1 μg/mL; for inhibition at 5 µg/mL: HL-60, 5 μg/mL
Method: as §1, §2, §3, §4, §5

| Structure (SMILES) | inhibition at 0.1 µg/mL [1] [%] | inhibition at 1 µg/mL [1] [%] | inhibition at 5 µg/mL ([1]; MB-435, 5 μg/mL) [%] | inhibition of proliferation (in words) ([1]; MB-435, 10-20 μg/mL) | inhibition at 0.1 µg/mL ([2]; 48 h) [%] | inhibition at 1 µg/mL ([2]; 48 h) [%] | inhibition at 5 µg/mL ([2]; 48 h) [%] | inhibition at 10 µg/mL ([2]; MCF-7, 10 μg/mL, 48 h) [%] | inhibition of proliferation (in words) ([2]; MCF-7, 10-20 μg/mL) | inhibition at 0.1 µg/mL ([3]; 48 h) [%] | inhibition at 1 µg/mL ([3]; 48 h) [%] | inhibition at 5 µg/mL ([3]; 48 h) [%] | inhibition at 10 µg/mL ([3]; HL-60, 10 μg/mL, 48 h) [%] | inhibition at 10 µg/mL ([1]; MB-435, 10 μg/mL) [%] | inhibition at 20 µg/mL ([1]; MB-435, 20 μg/mL) [%] | inhibition at 20 µg/mL ([2]; MCF-7, 20 μg/mL, 48 h) [%] | inhibition at 20 µg/mL ([3]; HL-60, 20 μg/mL, 48 h) [%] | inhibition of proliferation (in words) ([3]; HL-60, 20 μg/mL) | further results |
| --- | --- | --- | --- | --- | --- | --- | --- | --- | --- | --- | --- | --- | --- | --- | --- | --- | --- | --- | --- |
| CC(=O)Oc1c(C)c2c3c(c1C)CCCN3CCC2 [Compound 6, 9-Acetoxy-8,10-dimethyljulolidine] | 3 | 0 | 80 | significantly inhibited the proliferation | 0 | 10 | 13 | 37 | significantly inhibited the proliferation | 3 | 24 | 59 | 89 | – | – | – | – | – | inhibition of proliferation (in words) ([1]; MB-435, 5 μg/mL): significantly inhibited the proliferation; Inhibition (%) of DNA synthesis: TOXIC (viability) ([1]; MB-435, 10 μg/mL): TOXIC; Inhibition (%) of DNA synthesis: TOXIC (viability) ([1]; MB-435, 20 μg/mL): TOXIC; inhibition of proliferation (in words) ([2]; MCF-7, 10 μg/mL): significantly inhibited the proliferation; Inhibition (%) of DNA synthesis: TOXIC (viability) ([2]; MCF-7, 20 μg/mL, 48 h): TOXIC; inhibition of proliferation (in words) ([3]; HL-60, 10 μg/mL): significantly inhibited the proliferation; Inhibition (%) of DNA synthesis: TOXIC (viability) ([3]; HL-60, 20 μg/mL, 48 h): TOXIC; effect on HL-60 cells (in words) ([3]; HL-60, no dose stated): virtually no effect |
| CC(=O)N1CC(C)(C)c2c(C)c(O)c(C)c(C)c21 [Compound 31b] | 0 | 0 | 0 | significantly inhibited the proliferation | 0 | 0 | 29 | 18 | significantly inhibited the proliferation | 0 | 0 | 6 | 15 | 15 | 33 | 22 | 28 | – | inhibition of proliferation (in words) ([3]; HL-60, 10-20 μg/mL): significantly inhibited the proliferation |
| CC(C)(C)c1cc2c(c(C(C)(C)C)c1O)CC(=O)O2 [Compound 24, 4,6-Di-tert-butyl-2,3-dihydro-5-hydroxy-2(3H)-benzofuranone] | 13 | 5 | 29 | – | 0 | 4 | 25 | 85 | – | 7 | 0 | 5 | 30 | 85 | 97 | 97 | 47 | significantly inhibited the proliferation | inhibition of proliferation (in words) ([1]; MB-435, 10 μg/mL): significantly inhibited the proliferation; inhibition of proliferation (in words) ([2]; MCF-7, 10 μg/mL): significantly inhibited the proliferation |
| Cc1cc2c(c(C)c1O)C(C)(C)CN2C(=O)C(C)(C)C [Compound 20, N-Pivaloyl-5-hydroxy-3,3,4,6-tetramethylindoline] | -1 | -5 | -1 | – | – | – | – | – | – | 2 | 6 | 18 | 33 | -13 | 31 | – | 63 | inhibited the proliferation | inhibition of proliferation (in words) ([1]; MB-435, 20 μg/mL): inhibited the proliferation |
| COc1c(C)cc2c(c1C)C(C)CN2C(=O)C(C)C (stereo not drawn) [Compound 13, N-Isobutyryl-5-methoxy-3,4,6-trimethylindoline] | 4 | -4 | 8 | – | – | – | – | – | – | 0 | 10 | 15 | 27 | 17 | 45 | – | 53 | inhibited the proliferation | inhibition of proliferation (in words) ([1]; MB-435, 20 μg/mL): inhibited the proliferation |
| Cc1c(C)c2c(c(C)c1O)CC1(CC1)O2 [Compound 32] | 6 | 6 | 15 | significantly inhibited the proliferation | 0 | 10 | 5 | 18 | significantly inhibited the proliferation | 11 | 5 | 12 | 17 | 30 | 43 | 22 | 26 | – | inhibition of proliferation (in words) ([3]; HL-60, 10-20 μg/mL): significantly inhibited the proliferation |
| Cc1cc2c(c(C)c1O)C(C)CN2C(=O)C(C)(C)C (stereo not drawn) [Compound 11c, N-Pivaloyl-5-hydroxy-3,4,6-trimethylindoline] | 13 | 12 | 20 | – | 18 | 1 | 9 | 31 | – | 0 | 0 | 0 | 0 | 12 | 31 | 43 | 0 | – | – |
| CC(=O)N1CC(C)(C)c2c1cc(C)c(O)c2C [Compound 16, N-Acetyl-5-hydroxy-3,3,4,6-tetramethylindoline] | 0 | 1 | 9 | – | – | – | – | – | – | 0 | 0 | 11 | 11 | 18 | 31 | – | 15 | – | inhibition of proliferation (in words) ([1]; MB-435, 5-20 μg/mL): significantly inhibited the proliferation; inhibition of proliferation (in words) ([3]; HL-60, 5-20 μg/mL): significantly inhibited the proliferation |
